The values that follow come from patent US7459284B2, “Chemiluminescent acridinium compounds and analogues thereof as substrates of hydrolytic enzymes” (Siemens Healthcare Diagnostics Inc., priority 1999, dated 2008).

Where a name gives a salt, the structure may show the parent alone. Read-outs that look alike come from different tables or passages of the source.

Data set [1] addresses T1, alkaline phosphatase (Bos taurus, UniProt P19111). Put plainly: Alkaline phosphatase assay using 2-Phos-DMAE (1) as chemiluminescent substrate. The settings on record: 0.1 mM substrate, pH 9 Tris, 45° C., 1 hour; R2228P PMT, LL700 filter, 4° C. The class given is biochemical. As for the experimental part:
With one or more of the above approaches combined, several assay systems based on the principle of detecting the long emission signal generated by the action of AP on 2-Phos-DMAE (1) are constructed, and disclosed in the section of Examples. One example (Example 17) consists of the incubation of AP standards in a substrate solution containing 0.1 mM 2-Phos-DMAE (1), 1 mM magnesium chloride in 100 mM, pH 9 Tris buffer at 45° C. for 1 hour. The light outputs were measured on a luminometer equipped with a red-sensitive PMT (R2228P) and a long pass filter (LL700), which is placed in a 4° C. cold room. The sample was treated first with 0.25 N sodium hydroxide solution containing 0.5% AQUARD, immediately followed by 0.5% hydrogen peroxide.
The substrate solution of 2-Phos-DMAE (1) was prepared at 0.1 mM in 100 mM, pH 9.0 Tris buffer containing 1 mM MgCl2. […] The light outputs were measured for 2 seconds on Bayer Diagnostics Magic Lite Analyzer 1 (MLA-1) equipped with R268 PMT and two LL650 long wavelength pass filters (Corion, Lot No. CFS-002645). […]
According to Example 16, an assay of alkaline phosphatase was carried out by adding 5 μl of the AP standard to 95 μl of the substrate solution. […] The light outputs were measured for 2 seconds on MLA-1 equipped with R2228P PMT and a LL700 long wavelength pass filters, and the unit was pre-cooled in a cold room (4° C).

The target of data set [2] is T1, alkaline phosphatase. The experiment in a line: Enzymatic conversion of substrate by alkaline phosphatase (HPLC analysis). The class given is biochemical. The settings on record: alkaline aqueous medium; about 1 hour. As for the experimental part: A 1 mM DMF solution of the acridinium 3-enol-phosphate (13) was mixed with 150 μL of 100 mM Tris pH 9 also containing 1 mM MgCl2. Alkaline phosphatase (5 μl of a 2 mg/ml solution) was added and the reaction was incubated at room temperature for ˜1 hour. […] The product was isolated by semi-preparative HPLC using a 7.8×300 mm, C18 column. MALDI-TOF MS of the product indicated this was indeed the keto product (14): m/z 521.36 obs. (520.56 calc.).
A 20 μL DMF solution of the acridan (15) (1.7 mM) was combined with 180 μl of 0.15 M 2-amino-2-methyl-1-propanol pH 10.3 also containing 1 mM magnesium acetate. A clear blue solution was obtained (0.17 mM substrate), which was then treated with alkaline phosphatase (10^−10 moles). The blue color was discharged instantly. […] The reaction mixture was then evaluated by the FSSS to determine the light emission spectrum of the product, which is shown in FIG. 2N. The product was isolated by semi-preparative HPLC. […] (521.56 calc.).

Data set [3] can be described thus: Light emission spectra by Fast Spectral Scanning System (FSSS). The class given is physicochemical. As for the experimental part:
The light emission spectra of compounds 1˜12 and 15˜18 were determined by a Fast Spectral Scanning System (FSSS) of Photo Research (a division of Kollmorgen Corp.) of Burbank, Calif., U.S.A. The experiment was carried out in a dark room. Each compound was dissolved in acetonitrile or N,N-dimethylformamide. The resulting concentrate was diluted with the same solvent to form the working solution, which upon flashing gave a light emission with an adequate intensity. A typical experiment utilized 10˜100 μg or more of the sample in 500 μl of the solvent contained in a 13×100 mm borosilicate test tube. The tube was placed on a test tube rack raised to a proper height. A piece of aluminum foil was placed on the back of the tube to enhance the detectability of the emitted light. The FSSS optical head was placed in front of the tube at an approximate distance of about 130 mm with its lens focused on the liquid in the tube. The sample solution was first treated with 0.35 ml of the Flashing Reagent #1 (Bayer Diagnostics) containing 0.1 N HNO3 and 0.5% H2O2. The room was then darkened, and 0.35 ml of the Flashing Reagent #2 (Bayer Diagnostics) containing 0.25 N NaOH and 0.5% ARQUAD was added to the reaction mixture immediately. (See U.S. Pat. No. 4,927,769, which is commonly assigned and incorporated herein by reference.) The light which was generated instantaneously following the addition of the Reagent #2 was recorded by FSSS for 5 seconds starting from about one second before the Reagent #2 was added.

A short description of data set [4]: Quantum yield when flashed with alkaline solution first, then hydrogen peroxide. The class given is physicochemical. The settings on record: 0.25 N sodium hydroxide with 0.5% AQUARD first, followed by 0.5% hydrogen peroxide. On the procedure:
More specifically, when a solution of 1 is treated with 0.25 N sodium hydroxide solution containing 0.5% AQUARD, followed by 0.5% hydrogen peroxide, the quantum yield of 1 is lowered by more than 30 fold. […] Thus, to the advantage of better distinction between the signals of certain chemiluminescent products and their substrates, preferably, said alkaline solution contains sodium hydroxide at concentration of 0.01 to 1.0 N, and AQUARD at concentration of 0.01 to 1%, and said hydrogen peroxide solution contains hydrogen peroxide at concentration of 0.001 to 5%. More preferably, said alkaline solution contains 0.25 N sodium hydroxide and 0.5% AQUARD, and said hydrogen peroxide solution contains 0.5% hydrogen peroxide.

For data set [5] the following is noted: strong alkaline solution; disclosed in WO 00/09487; cited from earlier work.
The mark [6] stands for this setting: FSSS, hydrogen peroxide in strong alkaline solution.
Setting [7] is: spectral region with signal intensity above 5% of peak height, FSSS scanning limit 380-780 nm, flashed with 0.1 N HNO3/0.5% H2O2 then 0.25 N NaOH/0.5% ARQUAD.

T1 sequence (P19111 20-506): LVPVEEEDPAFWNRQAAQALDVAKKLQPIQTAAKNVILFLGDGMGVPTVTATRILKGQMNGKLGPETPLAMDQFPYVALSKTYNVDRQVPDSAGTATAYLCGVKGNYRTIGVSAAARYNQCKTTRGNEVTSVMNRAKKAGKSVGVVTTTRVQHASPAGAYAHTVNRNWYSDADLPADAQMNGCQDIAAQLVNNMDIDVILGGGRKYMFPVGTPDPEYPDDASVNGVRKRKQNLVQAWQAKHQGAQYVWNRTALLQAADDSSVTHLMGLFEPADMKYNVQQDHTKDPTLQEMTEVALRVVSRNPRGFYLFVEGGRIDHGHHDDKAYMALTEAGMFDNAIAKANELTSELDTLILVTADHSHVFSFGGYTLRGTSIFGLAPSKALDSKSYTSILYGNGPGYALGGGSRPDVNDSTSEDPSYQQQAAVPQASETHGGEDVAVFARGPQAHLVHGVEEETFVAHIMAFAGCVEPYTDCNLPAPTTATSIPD

On to `Cc1cc(C(=O)O)cc(C)c1OC(=O)c1c2ccccc2[n+](C)c2ccc(OP(=O)(O)O)cc12.[Na+].[Na+]` [Compound 1, (2′,6′-dimethyl-4′-carboxyl)phenyl 10-methyl-2-Phosphoryloxy-acridinium-9-carboxylate bromide], for which the “level of alkaline phosphatase detected” value at alkaline phosphatase [1] is reported as “below 1×10^−18 mole”. For the same compound, the “conversion by alkaline phosphatase” value on alkaline phosphatase [2] is recorded as “excellent substrate”. Further, in data set [3] (setting [6]), the “Emission Maximum” value is given as 478 nm. In addition, the “Emission Range” value in data set [3] (setting [7]) is listed as 430-600 nm. Further, the “lowering of quantum yield” value in data set [4] is “more than 30 fold”.

With `Cc1cc(C(=O)O)cc(C)c1OC(=O)c1c2ccccc2[n+](C)c2ccc(O)cc12` [Compound 2, (2′,6′-dimethyl-4′-carboxyl)phenyl 2-hydroxy-10-methyl-acridinium-9-carboxylate trifluoroacetate], in data set [5], the “emission λmax” value was 604 nm. In addition, the “Emission Maximum” value in data set [3] (setting [6]) turned out to be 602 nm. For the same compound, the “bathochromic shift of emission maximum” value in data set [3] (compound 2 relative to compound 1) turned out to be 128 nm. Moreover, the “Emission Range” value in data set [3] (setting [7]) is reported as 500-780^ nm. The “lowering of quantum yield” value in data set [4] is given as “basically not affected”.

Regarding `Cc1cc(C(=O)OCc2ccccc2)cc(C)c1OC(=O)c1c2ccccc2[n+](C)c2ccc(OP(=O)(O)O)cc12` [Compound 3, (2′,6′-dimethyl-4′-benzyloxy-carbonyl)phenyl 2-phosphoryloxy-10-methyl-acridinium-9-carboxylate trifluoroacetate], the “Emission Maximum” value in data set [3] (setting [6]) came out at 474 nm. Besides, the “Emission Range” value in data set [3] (setting [7]) is 430-600 nm.

For the compound `Cc1cc(C(=O)OCc2ccccc2)cc(C)c1OC(=O)c1c2ccccc2[n+](C)c2ccc(O)cc12` [Compound 4, (2′,6′-dimethyl-4′-benzyl-oxycarbonyl)phenyl 2-hydroxy-10-methyl-acridinium-9-carboxylate trifluoroacetate], the “Emission Maximum” value in data set [3] (setting [6]) is reported as 604 nm. Moreover, in data set [3] (setting [7]), the “Emission Range” value is recorded as 500-780^ nm.

For the compound `C[n+]1c2ccccc2c(C(=O)Oc2ccccc2)c2cc(OP(=O)(O)O)ccc21` [Compound 5, phenyl 10-methyl-2-Phosphoryloxy-acridinium-9-carboxylate trifluoroacetate], in data set [3] (setting [6]), the “Emission Maximum” value is listed as 478 nm. For the same compound, the “Emission Range” value in data set [3] (setting [7]) is recorded as 430-600 nm.

As for `C[n+]1c2ccccc2c(C(=O)Oc2ccccc2)c2cc(O)ccc21` [Compound 6, phenyl 2-hydroxy-10-methyl-acridinium-9-carboxylate trifluoromethanesulfonate], in data set [3], the “Emission Maximum” value is 600 nm and the “Emission Range” value was 500-780^ nm.

Turning to `Cc1cc(C(=O)O)cc(C)c1OC(=O)c1c2ccccc2[n+](CCCCS(=O)(=O)[O-])c2ccc(OP(=O)(O)O)cc12` [Compound 7, (2′, 6′-dimethyl-4′-carboxyl)phenyl 2-phosphoryloxy-10-sulfobutyl-acridinium-9-carboxylate], the “Emission Maximum” value in data set [3] (setting [6]) was determined as 474 nm. In addition, in data set [3] (setting [7]), the “Emission Range” value is on record as 430-600 nm.

On to `Cc1cc(C(=O)O)cc(C)c1OC(=O)c1c2ccccc2[n+](CCCCS(=O)(=O)[O-])c2ccc(O)cc12` [Compound 8, (2′, 6′-dimethyl-4′-carboxyl)phenyl 2-hydroxy-10-sulfobutyl-acridinium-9-carboxylate], for which, in data set [3] (setting [6]), the “Emission Maximum” value worked out at 594 nm. For the same compound, in data set [3] (setting [7]), the “Emission Range” value is on record as 500-780^ nm.

As for `COc1ccc2c(c1)c(C(=O)Oc1c(C)cc(C(=O)O)cc1C)c1cc(OP(=O)(O)O)ccc1[n+]2C.[Na+].[Na+]` [Compound 9, (2′,6′-dimethyl-4′-carboxyl)phenyl 2-phosphoryloxy-7-methoxy-10-methyl acridinium-9-carboxylate], in data set [3] (setting [6]), the “Emission Maximum” value came out at 476 nm. For the same compound, the “Emission Range” value in data set [3] (setting [7]) is 440-600 nm.

For the compound `COc1ccc2c(c1)c(C(=O)Oc1c(C)cc(C(=O)O)cc1C)c1cc(O)ccc1[n+]2C` [Compound 10, (2′,6′-dimethyl-4′-carboxyl)phenyl 2-hydroxy-7-methoxy-10-methyl acridinium-9-carboxylate], in data set [3] (2-OH-7-MeO-DMAE vs 2-OH-DMAE), the “longer emission maxima than unmethoxylated compound 2” value is on record as 60-70 nm. In addition, in data set [3] (setting [6]), the “Emission Maximum” value is recorded as 674 nm. Moreover, the “Emission Range” value in data set [3] (setting [7]) is recorded as 520-780^ nm.

With `CN1c2ccccc2C2(Oc3ccccc3OC2=O)c2cc(OP(=O)(O)O)ccc21` (centres unmarked) [Compound 11, 2-Phos-Spiroacridan], the “Emission Maximum” value in data set [3] (setting [6]) is listed as 474 nm. Also, the “Emission Range” value in data set [3] (setting [7]) is 430-600 nm.

Consider `Cc1cc(C(=O)O)cc(C)c1OC(=O)c1c2ccccc2[n+](C)c2cc(/C(=C/c3ccc(O)cc3)OP(=O)(O)O)ccc12` [Compound 13, (2′,6′-dimethyl-4′-carboxyl)phenyl 3-(β-phosphoryloxy-4′-hydroxystyryl)-10-methyl acridinium-9-carboxylate trifluoromethanesulfonate], for which the “conversion by alkaline phosphatase” value on alkaline phosphatase [2] is recorded as “complete conversion”.

Turning to `C[n+]1c2ccccc2c(C(=O)Oc2ccc(O)cc2)c2ccccc21` [Compound 18, 4′-hydroxyphenyl 10-methyl acridinium-9-carboxylate trifluoromethanesulfonate], in data set [3], the “Emission Maximum” value came to 452 nm and the “Emission Range” value was 410-540 nm.

Consider “(2′,6′-dimethyl-4′-carboxyl)phenyl 3-(β-phosphoryloxy-4′-hydroxystyryl)-10-methyl acridan [Compound 15]”, for which, at alkaline phosphatase [2], the “conversion by alkaline phosphatase” value was “clean conversion”. In addition, the “Emission Maximum” value in data set [3] (setting [6]) was found to be 678 nm. Also, the “Emission Range” value in data set [3] (setting [7]) was 520-780^ nm.
